Measurements published in patent US20250129086A1, “COMPOUND FOR DEGRADING EGFR PROTEIN AND USE THEREOF” (TYK MEDICINES, INC., priority 2021, published 2025).

What was measured:
[1] = tested on: H1975 (EGFR L858R/T790M double mutation); experiment: Cell antiproliferative assay (CTG, 72 h), H1975; assay type: cell-based, human
Method in brief: (§1)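 Cells seeded at 1500-2500 per well, compounds added about 24 h later as a 1:4 gradient from 10,000 nM top concentration in triplicate. After 72 h, viability read by CellTiter-Glo luminescence relative to 0.1% DMSO and blank-medium controls; IC50 from curve fitting.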

[2] = tested on: PC-9 (EGFR exon 19 deletion); experiment: Cell antiproliferative assay (CTG, 72 h), PC-9; assay type: cell-based, human
Method in brief: as §1

[3] = tested on: HCC827 (exon 19 deletion mutation); experiment: Cell antiproliferative assay (CTG, 72 h), HCC827; assay type: cell-based, human
Method in brief: as §1

[4] = target: T1, EGFR (Homo sapiens, UniProt P00533, DEL746-750); experiment: EGFR PROTAC In Cell Western assay in HCC827; assay type: cell-based; details: HCC827, EGFR degradation, 16 hours of incubation
T1 construct: host or cells: HCC827
T1 sequence (P00533 with tags, fused parts or gaps DEL746-750): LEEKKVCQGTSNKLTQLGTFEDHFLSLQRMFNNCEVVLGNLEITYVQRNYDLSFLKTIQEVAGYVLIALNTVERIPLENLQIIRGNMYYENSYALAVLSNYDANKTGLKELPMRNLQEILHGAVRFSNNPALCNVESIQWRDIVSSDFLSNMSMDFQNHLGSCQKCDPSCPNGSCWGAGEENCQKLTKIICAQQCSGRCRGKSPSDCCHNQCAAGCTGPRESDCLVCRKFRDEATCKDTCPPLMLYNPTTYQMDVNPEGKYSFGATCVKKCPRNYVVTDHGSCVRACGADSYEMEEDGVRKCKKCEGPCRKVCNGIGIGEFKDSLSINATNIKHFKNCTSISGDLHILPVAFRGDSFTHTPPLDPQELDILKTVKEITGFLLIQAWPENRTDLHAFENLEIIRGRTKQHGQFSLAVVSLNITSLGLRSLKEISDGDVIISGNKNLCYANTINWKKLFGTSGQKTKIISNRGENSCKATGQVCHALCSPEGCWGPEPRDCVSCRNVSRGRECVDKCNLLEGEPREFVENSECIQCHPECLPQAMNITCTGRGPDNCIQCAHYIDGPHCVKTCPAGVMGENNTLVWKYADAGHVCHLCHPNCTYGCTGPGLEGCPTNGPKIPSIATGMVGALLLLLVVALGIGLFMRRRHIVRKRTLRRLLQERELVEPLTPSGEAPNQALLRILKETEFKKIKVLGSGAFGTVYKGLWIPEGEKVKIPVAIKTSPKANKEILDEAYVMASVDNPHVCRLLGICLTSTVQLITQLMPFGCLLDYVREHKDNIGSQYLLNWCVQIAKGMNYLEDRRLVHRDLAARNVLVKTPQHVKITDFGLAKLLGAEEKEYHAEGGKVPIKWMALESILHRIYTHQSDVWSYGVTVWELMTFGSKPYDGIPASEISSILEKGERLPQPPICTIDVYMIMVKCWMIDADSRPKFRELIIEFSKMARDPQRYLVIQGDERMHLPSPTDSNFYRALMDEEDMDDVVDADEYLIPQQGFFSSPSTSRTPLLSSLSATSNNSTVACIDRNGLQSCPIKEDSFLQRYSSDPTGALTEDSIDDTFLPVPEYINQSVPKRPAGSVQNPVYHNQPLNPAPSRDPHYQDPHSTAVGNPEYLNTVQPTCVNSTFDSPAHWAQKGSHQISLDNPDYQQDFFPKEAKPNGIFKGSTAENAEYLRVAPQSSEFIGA
From the text: Test Example 2 EGFR PROTAC in Cell Western Assay
HCC827 cell culture medium was purchased from Corning. Cell line HCC827 was purchased from BeNa Culture Collection; EGF Receptor (D38B1) XP Rabbit mAb antibody and β-Actin (8H10D10) Mouse mAb antibody were from CST. IRDye 800CW, IRDye 680RD, and Intercept blocking solution (PBS) were purchased from Licor. Triton-100 was purchased from sigma, and 96-well black cell culture imaging microtiter plates were purchased from Agilent.
1) HCC827 cells were cell counted and cells were inoculated into 96-well black cell culture imaging microtiter plates at a density of 40,000 cells per well, with 100 μl per well. The plate was incubated overnight in a CO2 incubator.
2) Day 1: A gradient dilution of the compound to be tested was added to the cells of the culture plate (with a starting concentration of […], 9 concentrations, a dilution ratio of 1:3, 2 duplicate wells), with a final concentration of DMSO being 0.5%, and a blank control of DMSO without compound. The plate was placed in the cell culture incubator for a final 16 hours of incubation.
3) The culture medium was removed from the 96 wells with a pipette and the residual medium was washed with […] of PBS per well on a shaker for 5 min. After the removal of PBS, cells were quickly fixed by adding 150 μl of fresh fixation buffer (3.7% paraformaldehyde) and incubated for 20 min at room temperature.
4) The fixation buffer was removed and […] of Triton elution buffer (0.3% Triton-100) was added to wash for four times on a shaker for 5 minutes each time.
5)[…] LI-COR Odyssey blocking solution was added and the cells were incubated for 1.5 hours at room temperature with slow shaking on a shaker.
6) To block the samples, a primary antibody against EGFR and Actin were prepared using Antibody Dilution Buffer at a ratio of 1:300. The blocking solution was poured out and the diluted primary antibody was added (at a total volume of 50 μl/per well). The cell plate was covered and incubated at 4° C. overnight.
7) The cell plate was washed four times with PBS+Triton X-100 for 5 minutes each time.
8) Fluorescently labeled secondary antibodies IRDye® 680RD and IRDye® 800CW were diluted with Antibody Dilution Buffer (with a ratio of 1:600, at a total volume of 50 μl/well) and then incubated for one hour at room temperature, protected from light.
9) The cell plate was washed four times with PBS+Triton X-100 for 5 minutes each time.
After pipetting the PBS thoroughly, the plate was inverted and imaged on a Burroughs imager. A multiple exposure program was selected, IRDye 680RD Blot was chosen for the first channel, and IRDye 800CW Blot was chosen for the second channel. […] The blank group was the DMSO group, EGFR/Actin was calculated as the EGFR value of the corresponding sample wells, and the degradation rate=100-100*EGFR signal/DMSO signal. The DC50 and Dmax of the degraded EGFR proteins were calculated by fitting curves using the Prism software, 3-parameter method.

[5] = Homo sapiens, NCI-H1975, 72 h, Table 2, H1975 cells
[6] = Homo sapiens, PC-9, 72 h, Table 2, PC-9 cells
[7] = Homo sapiens, HCC827, 72 h, Table 2, HCC827 cells

SMILES | IC50 [1, 5] | IC50 [2, 6] | IC50 [3, 7] | Dmax ([4]; HCC827, Table 4) | DC50 ([4]; Table 4) | IC50 ([1]; Homo sapiens, NCI-H1975, 72 h, Table 3, H1975 cells) | IC50 ([2]; Homo sapiens, PC-9, 72 h, Table 3, PC-9 cells) | IC50 ([3]; Homo sapiens, HCC827, 72 h, Table 3, HCC827 cells) | Dmax ([4]; HCC827, Table 5) | DC50 ([4]; Table 5) | IC50 ([1]; Table 2, H1975 cells) | IC50 ([2]; Table 2, PC-9 cells) | IC50 ([3]; Table 2, HCC827 cells) | Dmax(%) ([4]; Table 4)
COc1cc(N2CC[C@H](N(C)C(=O)CN3CCC(c4ccc(NC5CCC(=O)NC5=O)cc4)CC3)C2)ccc1Nc1ncc(Cl)c(Nc2ccccc2C(C)=O)n1 (stereo partly drawn) [Compound T-172] | 100 to 1000 nM | ≥ 1000 nM | 10 to 100 nM | < 50% | 10 to 100 nM |  |  |  |  |  |  |  |  | 
COc1cc(N2CCN(CCN3CCC(c4ccc(NC5CCC(=O)NC5=O)cc4)CC3)CC2)ccc1Nc1ncc(Cl)c(Nc2ccccc2C(C)=O)n1 (stereo not drawn) [Compound T-182] | 10 to 100 nM | 100 to 1000 nM | 100 to 1000 nM | 50 to 70% | 10 to 100 nM |  |  |  |  |  |  |  |  | 
CNC(=O)c1ccccc1Nc1nc(Nc2ccc(N3CCN(C(=O)CN4CCC(c5ccc(NC6CCC(=O)NC6=O)cc5)CC4)CC3)cc2OC)ncc1Cl (stereo not drawn) [Compound T-184] | ≤ 10 nM | 100 to 1000 nM | 10 to 100 nM | 70 to 100% | 10 to 100 nM | 7.72 nM | 122 nM | 14.2 nM | 70.8% | 10.2 nM |  |  |  | 
CNC(=O)c1ccccc1Nc1nc(Nc2ccc(N3CCN(C(=O)CN4CCC(c5ccc(NC6CCC(=O)NC6=O)cc5)CC4)CC3)cc2OC)ncc1Br (stereo not drawn) [Compound T-185] | ≤ 10 nM | 100 to 1000 nM | 10 to 100 nM | 70 to 100% | ≤ 10 nM |  |  |  |  |  |  |  |  | 
COc1cc(N2CCN(C(=O)CN3CCC(c4ccc(NC5CCC(=O)NC5=O)cc4)CC3)CC2)ccc1Nc1ncc(Cl)c(Nc2ccccc2C(=O)C(C)C)n1 (stereo not drawn) [Compound T-190] | 10 to 100 nM | 100 to 1000 nM | 100 to 1000 nM | 50 to 70% | ≥ 1000 nM |  |  |  |  |  |  |  |  | 
COc1cc(N2C3CCC2CN(C(=O)CN2CCC(c4ccc(NC5CCC(=O)NC5=O)cc4)CC2)C3)ccc1Nc1ncc(Cl)c(Nc2ccccc2C(C)=O)n1 (stereo not drawn) [Compound T-191] | 10 to 100 nM | 100 to 1000 nM | 100 to 1000 nM | 50 to 70% | 100 to 1000 nM |  |  |  |  |  |  |  |  | 
COc1cc(N2CCN(C(=O)CN3CCC(c4ccc(NC5CCC(=O)NC5=O)cc4)CC3)CC2)ccc1Nc1ncc(Cl)c(Nc2ccccc2C(=O)N(C)C)n1 (stereo not drawn) [Compound T-198] | ≤ 10 nM | 100 to 1000 nM | 100 to 1000 nM | 50 to 70% | ≤ 10 nM |  |  |  |  |  |  |  |  | 
COc1nc(N2CCN(C(=O)CN3CCC(c4ccc(NC5CCC(=O)NC5=O)cc4)CC3)CC2)ccc1Nc1ncc(Cl)c(Nc2ccccc2P(C)(C)=O)n1 (stereo not drawn) [Compound T-203] | 10 to 100 nM | 100 to 1000 nM | 10 to 100 nM | 50 to 70% | 10 to 100 nM |  |  |  |  |  |  |  |  | 
COc1cc(N2CCC(N3CCN(C(=O)CN4CCC(c5ccc(NC6CCC(=O)NC6=O)cc5)CC4)CC3)CC2)ccc1Nc1ncc(Cl)c(Nc2ccccc2N(C)S(C)(=O)=O)n1 (stereo not drawn) [Compound T-211] | 10 to 100 nM | 100 to 1000 nM | 10 to 100 nM | 50 to 70% | 10 to 100 nM |  |  |  |  |  |  |  |  | 
COc1cc(N2CCC(N3CCN(C(=O)CCCCN4CCC(c5ccc(NC6CCC(=O)NC6=O)cc5)CC4)CC3)CC2)ccc1Nc1ncc(Cl)c(Nc2ccccc2N(C)S(C)(=O)=O)n1 (stereo not drawn) [Compound T-220] | 10 to 100 nM | 100 to 1000 nM | 100 to 1000 nM | < 50% | 10 to 100 nM |  |  |  |  |  |  |  |  | 
COc1cc(N2CCC(N3CCN(C(=O)CCCCN4CCN(c5ccc6c(c5)C(=O)N(C5CCC(=O)NC5=O)C6=O)CC4)CC3)CC2)ccc1Nc1ncc(Cl)c(Nc2ccccc2C(C)=O)n1 (stereo not drawn) [Compound T-221] | 100 to 1000 nM | ≥ 1000 nM | ≥ 1000 nM | < 50% | 100 to 1000 nM |  |  |  |  |  |  |  |  | 
COc1cc(N2CCC(N(C)C(=O)CN3CCC(c4ccc(NC5CCC(=O)NC5=O)cc4)CC3)CC2)ccc1Nc1ncc(C(F)(F)F)c(Nc2ccccc2C(C)=O)n1 (stereo not drawn) [Compound T-224] |  |  |  |  | 10 to 100 nM |  |  |  |  |  | 10 to 100 nM | 100 to 1000 nM | 100 to 1000 nM | C (C<50%)
COc1cc(N2CCN(C(=O)CN3CCC(c4ccc(NC5CCC(=O)NC5=O)cc4)CC3)CC2)ccc1Nc1ncc(Cl)c(Nc2ccccc2N(C)S(C)(=O)=O)n1 (stereo not drawn) [Compound T-227] | ≤ 10 nM | 10 to 100 nM | 10 to 100 nM | 50 to 70% | 10 to 100 nM |  |  |  |  |  |  |  |  | 

Next, values leading:

IC50 [1, 5] | IC50 [2, 6] | IC50 [3, 7] | Dmax ([4]; HCC827, Table 4) | DC50 ([4]; Table 4) | IC50 ([1]; Homo sapiens, NCI-H1975, 72 h, Table 3, H1975 cells) | IC50 ([2]; Homo sapiens, PC-9, 72 h, Table 3, PC-9 cells) | IC50 ([3]; Homo sapiens, HCC827, 72 h, Table 3, HCC827 cells) | Dmax ([4]; HCC827, Table 5) | DC50 ([4]; Table 5) | IC50 ([1]; Table 2, H1975 cells) | IC50 ([2]; Table 2, PC-9 cells) | IC50 ([3]; Table 2, HCC827 cells) | Dmax(%) ([4]; Table 4) | SMILES
10 to 100 nM | 100 to 1000 nM | 10 to 100 nM | 50 to 70% | 10 to 100 nM |  |  |  |  |  |  |  |  |  | COc1cc(N2CCN(C(=O)CN3CCC(c4ccc(NC5CCC(=O)NC5=O)cc4)CC3)CC2)c(-c2cnn(C)c2)cc1Nc1ncc(Cl)c(Nc2ccccc2C(C)=O)n1 (stereo not drawn) [Compound T-233]
≤ 10 nM | 10 to 100 nM | 10 to 100 nM | 70 to 100% | ≤ 10 nM |  |  |  |  |  |  |  |  |  | COc1cc(N2CCN(C(=O)CN3CCC(c4ccc(NC5CCC(=O)NC5=O)cc4)CC3)CC2)ncc1Nc1ncc(C(F)(F)F)c(Nc2ccccc2C(C)=O)n1 (stereo not drawn) [Compound T-246]
≤ 10 nM | 10 to 100 nM | 10 to 100 nM | 70 to 100% | 10 to 100 nM |  |  |  |  |  |  |  |  |  | CNC(=O)c1ccccc1Nc1nc(Nc2cc(C)c(N3CCN(C(=O)CN4CCC(c5ccc(NC6CCC(=O)NC6=O)cc5)CC4)CC3)cc2OC)ncc1Cl (stereo not drawn) [Compound T-254]
100 to 1000 nM | 100 to 1000 nM | 100 to 1000 nM | < 50% | 10 to 100 nM |  |  |  |  |  |  |  |  |  | CC(=O)c1ccccc1Nc1nc(Nc2ccc(N3CCN(C(=O)CN4CCC(c5ccc(NC6CCC(=O)NC6=O)cc5)CC4)CC3)cc2Cl)ncc1Cl (stereo not drawn) [Compound T-333]
100 to 1000 nM | 100 to 1000 nM | 100 to 1000 nM | < 50% | 100 to 1000 nM |  |  |  |  |  |  |  |  |  | COc1cc(C2CCN(C(=O)CN3CCC(c4ccc(NC5CCC(=O)NC5=O)cc4)CC3)CC2)ccc1Nc1ncc(Cl)c(Nc2ccccc2C(C)=O)n1 (stereo not drawn) [Compound T-334]
100 to 1000 nM | 100 to 1000 nM | 100 to 1000 nM | 50 to 70% | 100 to 1000 nM |  |  |  |  |  |  |  |  |  | C=CC(=O)Nc1cc(Nc2ncc(Cl)c(Nc3ccccc3)n2)c(OC)cc1N1CCN(C(=O)CN2CCC(c3ccc(NC4CCC(=O)NC4=O)cc3)CC2)CC1 (stereo not drawn) [Compound T-335]
100 to 1000 nM | 100 to 1000 nM | 100 to 1000 nM | < 50% | 10 to 100 nM |  |  |  |  |  |  |  |  |  | COc1cc(N2CCC(NC(=O)CN3CCC(c4ccc(NC5CCC(=O)NC5=O)cc4)CC3)CC2)ccc1Nc1ncc(Cl)c(Nc2ccccc2C(C)=O)n1 (stereo not drawn) [Compound T-336]
